Among the data in PubChem BioAssay (NCI) are TGI and GI50 values, retold here.

Some test systems named below: A549 NSCLC; RPMI-8226 leukemia; HOP-62 NSCLC; ACHN renal; SF-295 CNS; T-47D breast; PC-3 prostate; HOP-92 NSCLC; MCF7 breast; OVCAR-4 ovarian.
What all share (test): inhibition of tumour cell growth, NCI panel, 48 h

Structures are written as SMILES. Several values for one entry are separate records, joined by “and”; a condition that tells them apart may be missing. Equal values may be shown once.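 Results reflect a 48-hour exposure of cells in 96-well plates to compound at five concentrations. GI50 is the concentration that inhibits growth by half. TGI is the concentration that stops growth completely.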

For the compound `O=C(O)CCCCn1cnc2c(=S)nc[nH]c21`, the TGI with A549 NSCLC, with RPMI-8226 leukemia, in the assay with HOP-62 NSCLC, with ACHN renal, in the assay with SF-295 CNS and with T-47D breast was over 100 µM in each case. The TGI in the assay with PC-3 prostate, in the assay with HOP-92 NSCLC, with MCF7 breast and in the assay on OVCAR-4 ovarian was over 100 µM throughout.
As to `C#CCNC(=O)CC[C@]1(C)[C@H]2CC[C@@H]3[C@@H]([C@@](C)(O)CCC=C(C)C)CC[C@@]3(C)[C@]2(C)CC[C@H]1C(=C)C`, the GI50 in the assay on A549 NSCLC is 42.7 µM; in the assay with RPMI-8226 leukemia, 20.1 µM; in the assay with HOP-62 NSCLC, 35 µM; with ACHN renal, 25.3 µM; in the assay on SF-295 CNS, 48.4 µM; in the assay on T-47D breast, 35 µM. Moreover, the GI50 in the assay on PC-3 prostate is 17.4 µM; in the assay with HOP-92 NSCLC, 14.8 µM; with MCF7 breast it was 24.7 µM; with OVCAR-4 ovarian, 43.6 µM. Besides, the TGI was over 100 µM with A549 NSCLC; 62.9 µM with RPMI-8226 leukemia; over 100 µM in the assay on HOP-62 NSCLC; over 100 µM with ACHN renal; over 100 µM in the assay on SF-295 CNS; over 100 µM in the assay with T-47D breast. The TGI in the assay with PC-3 prostate is 70 µM; in the assay on HOP-92 NSCLC it was 34.2 µM; in the assay on MCF7 breast it was over 100 µM; in the assay on OVCAR-4 ovarian, over 100 µM.
For `O=C(NNC(=O)c1ccncc1)c1ccncc1`, the TGI in the assay on A549 NSCLC, in the assay with RPMI-8226 leukemia, with HOP-62 NSCLC, in the assay with ACHN renal, in the assay with SF-295 CNS and in the assay with T-47D breast was over 100 µM each time. Moreover, the TGI with PC-3 prostate, with HOP-92 NSCLC, in the assay with MCF7 breast and in the assay with OVCAR-4 ovarian was over 100 µM in each case.
Regarding `O=C1/C(=C/c2ccccc2)CCC/C1=C\c1ccccc1`, the GI50 was 7.66 µM and 17.5 µM in the assay with A549 NSCLC; 2.89 µM and 2.23 µM with RPMI-8226 leukemia; 7.64 µM with HOP-62 NSCLC; 6.72 µM and 9.22 µM in the assay on ACHN renal; 7.49 µM in the assay with SF-295 CNS; 15.1 µM in the assay on T-47D breast. Moreover, the GI50 in the assay on PC-3 prostate was 14.3 µM; with HOP-92 NSCLC, 6.48 µM; in the assay with MCF7 breast it was 3.46 µM; with OVCAR-4 ovarian, 6.18 µM. For the same compound, the TGI with A549 NSCLC was 17.8 µM and 45.7 µM and 42.5 µM; with RPMI-8226 leukemia, 36.5 µM and > 20.1 µM and 5.89 µM; with HOP-62 NSCLC, 13.6 µM and 40 µM and 41.1 µM; in the assay on ACHN renal, 12.1 µM and 29.2 µM and 26.2 µM; with SF-295 CNS, 13.6 µM and 26.5 µM; with T-47D breast, 11.6 µM and 38.6 µM. Moreover, the TGI in the assay with PC-3 prostate was 11 µM and 42.5 µM; with HOP-92 NSCLC it was 13 µM and 35.2 µM and 37.3 µM; in the assay on MCF7 breast, 12.4 µM and 21 µM; in the assay on OVCAR-4 ovarian, 11.8 µM and 32.4 µM.
Consider `CC[CH2][Sn]([Cl])([Cl])[CH2]CC`, for which the GI50 in the assay on A549 NSCLC was 18.2 µM; in the assay on RPMI-8226 leukemia it was 2.03 µM; in the assay on HOP-62 NSCLC, 16.6 µM; in the assay on ACHN renal it was 6.88 µM; with SF-295 CNS, 17.2 µM; in the assay with T-47D breast it was 1.17 µM. Also, the GI50 was 16.2 µM with PC-3 prostate, 10.6 µM with HOP-92 NSCLC, 3.27 µM with MCF7 breast and 12.9 µM in the assay on OVCAR-4 ovarian. Further, the TGI with A549 NSCLC stood at 34.3 µM; in the assay on RPMI-8226 leukemia it was 7.77 µM; with HOP-62 NSCLC it was 31.3 µM; with ACHN renal, 20 µM; in the assay with SF-295 CNS, 33.4 µM; in the assay with T-47D breast, 3.36 µM. Besides, the TGI was determined as 35.9 µM in the assay with PC-3 prostate, 23.7 µM in the assay with HOP-92 NSCLC, 16.5 µM in the assay with MCF7 breast and 25.6 µM in the assay on OVCAR-4 ovarian.
Turning to `CC(=O)OC(C)(C)N=Nc1ccc(Br)cc1`, the TGI was over 100 µM with A549 NSCLC; 36.2 µM with RPMI-8226 leukemia; over 100 µM in the assay with HOP-62 NSCLC; 23.1 µM with ACHN renal; over 60.1 µM in the assay on SF-295 CNS; 44.4 µM in the assay with T-47D breast. Besides, the TGI with PC-3 prostate is over 100 µM; in the assay on HOP-92 NSCLC it was 67.6 µM; in the assay on MCF7 breast, over 100 µM; in the assay on OVCAR-4 ovarian, over 100 µM.
For the compound `CCOC(=O)C1=C(C)NC2SC(=O)/C(=C\c3ccccc3)N2C1c1ccccc1` (stereo not given), the GI50 is over 100 µM with A549 NSCLC; 33.5 µM in the assay with RPMI-8226 leukemia; over 100 µM with HOP-62 NSCLC; over 100 µM in the assay with ACHN renal; over 100 µM in the assay with SF-295 CNS; 38.2 µM in the assay on T-47D breast. For the same compound, the GI50 with PC-3 prostate was 31 µM; in the assay on HOP-92 NSCLC it was over 100 µM; in the assay with MCF7 breast it was over 100 µM; in the assay with OVCAR-4 ovarian it was 78.1 µM. The TGI with A549 NSCLC, in the assay with RPMI-8226 leukemia, in the assay with HOP-62 NSCLC, in the assay with ACHN renal, in the assay on SF-295 CNS and with T-47D breast was over 100 µM each time. For the same compound, the TGI in the assay on PC-3 prostate, in the assay on HOP-92 NSCLC, with MCF7 breast and in the assay on OVCAR-4 ovarian was over 100 µM throughout.
As for `CCOC(=O)C(=O)N=Nc1nc2c(O)c3ccccc3c(O)c2s1`, the TGI is 17.6 µM in the assay on A549 NSCLC; over 19.9 µM with RPMI-8226 leukemia; 24.7 µM in the assay with HOP-62 NSCLC; 6.74 µM in the assay with ACHN renal; 12.3 µM in the assay on SF-295 CNS; 35.8 µM with T-47D breast. The TGI worked out at 27.1 µM in the assay with PC-3 prostate, 23.1 µM in the assay with HOP-92 NSCLC, 30.4 µM in the assay on MCF7 breast and 3.64 µM in the assay on OVCAR-4 ovarian.
Consider `CC[C@@H](C(=O)[C@@H](C)[C@@H](O)[C@H](C)[C@@H]1O[C@@H]([C@@H](CC)C(=O)O)CC[C@@H]1C)[C@H]1OC2(C=C[C@@H](O)[C@]3(CC[C@@](C)([C@H]4CC[C@](O)(CC)[C@H](C)O4)O3)O2)[C@H](C)C[C@@H]1C` (stereo not given in full), for which the GI50 with A549 NSCLC was 0.233 µM; in the assay with RPMI-8226 leukemia it was 0.117 µM; in the assay on HOP-62 NSCLC it was 0.447 µM; with ACHN renal it was 1.68 µM; in the assay on SF-295 CNS, 0.263 µM; with T-47D breast, 0.174 µM. Besides, the GI50 in the assay with PC-3 prostate was 0.0408 µM; in the assay on HOP-92 NSCLC, 0.0829 µM; in the assay with MCF7 breast it was 0.154 µM; with OVCAR-4 ovarian it was 3.01 µM. In addition, the TGI in the assay with A549 NSCLC was 9.77 µM; in the assay with RPMI-8226 leukemia, 4.48 µM; in the assay with HOP-62 NSCLC it was 20.7 µM; in the assay with ACHN renal it was over 50 µM; in the assay with SF-295 CNS, 19.8 µM; in the assay on T-47D breast, 10.4 µM. The TGI was over 50 µM in the assay with PC-3 prostate, 5.45 µM in the assay with HOP-92 NSCLC, over 39.2 µM in the assay on MCF7 breast and 49.3 µM in the assay with OVCAR-4 ovarian.
